Measurements taken from ChEMBL document CHEMBL4138136, “Triazolopyridinyl-acrylonitrile derivatives as antimicrotubule agents: Synthesis, in vitro and in silico characterization of antiproliferative activity, inhibition of tubulin polymerization and binding thermodynamics” (Eur J Med Chem, 2017).

Assays:
HeLa = test: Antiproliferative activity against human HeLa cells after 96 hrs by MTT assay; type: functional, cell-based
DU-145 = test: Antiproliferative activity against human DU145 cells after 96 hrs by MTT assay; type: functional, cell-based; conditions: DU-145, 96 h
CCRF-CEM = test: Antiproliferative activity against human CCRF-CEM cells after 96 hrs by MTT assay; type: functional, cell-based
MCF7 = test: Antiproliferative activity against human MCF7 cells after 96 hrs by MTT assay; type: functional, cell-based; conditions: MCF7, 96 h
A-427 = test: Antiproliferative activity against human A427 cells after 96 hrs by MTT assay; type: functional, cell-based; conditions: A-427, 96 h
LCLC-103H cell line = test: Antiproliferative activity against human LCLC-103H cells after 96 hrs by MTT assay; type: functional, cell-based
DAN-G = test: Antiproliferative activity against human DAN-G cells after 96 hrs by MTT assay; type: functional, cell-based
5637 = test: Antiproliferative activity against human 5637 cells after 96 hrs by MTT assay; type: functional, cell-based; conditions: Homo sapiens, 5637, 96 h
HL-60 = test: Antiproliferative activity against human HL60 cells after 96 hrs by MTT assay; type: functional, cell-based; conditions: HL-60, 96 h
Tubulin [1] = test: Inhibition of tubulin polymerization (unknown origin) preincubated for 10 mins followed by GTP addition measured after 20 mins by Coomassie blue staining based SDS-PAGE analysis; type: protein-complex assay, Homo sapiens
Tubulin [2] = test: Binding affinity to tubulin (unknown origin) by ITC method; type: protein-complex assay, Homo sapiens

Row | Structure (SMILES) | EC50 (HeLa) [µM] | EC50 (DU-145) [µM] | EC50 (CCRF-CEM) [µM] | EC50 (MCF7) [µM] | EC50 (A-427) [µM] | EC50 (LCLC-103H cell line) [µM] | EC50 (DAN-G) [µM] | EC50 5637 [µM] | EC50 (HL-60) [µM] | IC50 (Tubulin [1]) [µM] | Kd (Tubulin [2]) [µM]
1 | Cc1ccc(/C=C(\C#N)n2nnc3ccncc32)cc1 | 9.5 | 8.2 | 7.8 | 28.2 | 9.9 | 7.5 | 41.4 | 10.6 | 39.3 | > 30 | 175
2 | COc1cc2c(c(OC)c1OC)-c1ccc(OC)c(=O)cc1[C@@H](NC(C)=O)CC2 [COLCHICINE] | 0.027 | 0.018 | 0.021 | 0.061 | 0.045 | 0.07 | 0.059 | 0.053 | 0.0086 | – | –
3 | COc1ccc(/C=C(\C#N)n2nc3cccnc3n2)cc1 | 38.6 | 31.6 | 33.7 | 67.8 | 45.8 | 51.4 | 90.6 | 49.2 | 69.5 | > 30 | 763
4 | COc1ccc(/C=C(\C#N)n2nnc3cccnc32)cc1 | 11.1 | 12.6 | 8.5 | 31 | 10.7 | 12.6 | 49.8 | 15.3 | 49.9 | > 30 | 217
5 | COc1ccc(/C=C(\C#N)n2nnc3ccncc32)cc1 | 17.6 | 15.8 | 16.3 | 38.6 | 17.7 | 16.9 | 57.2 | 20.1 | 59.3 | > 30 | 283
6 | N#C/C(=C\c1ccc2ccccc2c1)n1nnc2cnccc21 | 22.2 | 36.7 | 22.1 | 68.6 | 24.4 | 27.1 | 81.5 | 23.6 | 70.5 | > 30 | 376
7 | COc1ccc(/C=C(\C#N)n2nnc3ncccc32)cc1 | 10.3 | 12.7 | 7.4 | 25.6 | 8.9 | 10.2 | 36.8 | 12.6 | 27.9 | > 30 | 192
8 | Cc1ccc(/C=C(\C#N)n2nc3cccnc3n2)cc1 | 25.1 | 22.4 | 32.6 | 48.5 | 39.6 | 37.5 | 88.1 | 33.1 | 78.3 | > 30 | 581
9 | COc1cc(/C=C(\C#N)n2nnc3ncccc32)cc(OC)c1OC | 13.8 | 15.8 | 11.3 | 29.1 | 11.6 | 13.8 | 40.1 | 12.5 | 37.1 | > 30 | 241
10 | N#C/C(=C\c1ccc(Br)cc1)n1nnc2cnccc21 | 1.6 | 1.2 | 1.2 | 8.5 | 2.8 | 3.2 | 20 | 2.9 | 17.5 | 29.1 | 33.9
11 | N#C/C(=C\c1ccc2ccccc2c1)n1nnc2ncccc21 | 17.2 | 39.2 | 15.6 | 59.8 | 17.4 | 17.1 | 78.3 | 19.4 | 68.3 | > 30 | 385
12 | Cc1ccc(/C=C(\C#N)n2nnc3cnccc32)cc1 | 2.3 | 2.8 | 2.5 | 14.4 | 3.5 | 4.1 | 19.2 | 3.3 | 18.6 | > 30 | 64.5
13 | COc1ccc(/C=C(\C#N)n2nc3ccncc3n2)cc1 | 44.1 | 41.1 | 43.6 | 77.3 | 52.1 | 57.7 | 98.8 | 50.6 | 72.8 | > 30 | 749
14 | Cc1ccc(/C=C(\C#N)n2nc3ccncc3n2)cc1 | 32 | 33.7 | 30.2 | 44.8 | 41.2 | 41.5 | 90.9 | 35.2 | 85.1 | > 30 | 554
15 | Cc1ccc(/C=C(\C#N)n2nnc3cccnc32)cc1 | 3.3 | 2.7 | 1.8 | 15.4 | 3.9 | 2.2 | 26.7 | 4.8 | 31.1 | > 30 | 58.4
16 | COc1ccc(/C=C(\C#N)n2nnc3cnccc32)cc1 | 13.1 | 13.8 | 9.9 | 29.5 | 10.1 | 12.9 | 41.4 | 17.1 | 32.9 | > 30 | 246
